{
  "source": "patent US12673970B2",
  "about": "“Neuroactive steroids and their methods of use” (priority 2020, dated 2026)",
  "key": {"[1]": {"biological_target": "GABAA receptor ([35S]-TBPS binding, rat brain cortical membranes)", "assay": "Steroid inhibition of [35S]-TBPS binding", "details": "3 nM [35S]-TBPS, in the presence of 5 mM GABA", "experimental": "[35S]-t-Butylbicyclophosphorothionate (TBPS) binding assays using rat brain cortical membranes in the presence of 5 mM GABA has been described (Gee et al, J. Pharmacol. Exp. Ther. 1987, 241, 346-353; Hawkinson et al, Mol. Pharmacol. 1994, 46, 977-985; Lewin, A. H et al., Mol. Pharmacol. 1989, 35, 189-194).\nBriefly, cortices are rapidly removed following decapitation of carbon dioxide-anesthetized Sprague-Dawley rats (200-250 g). The cortices are homogenized in 10 volumes of ice-cold 0.32 M sucrose using a glass/teflon homogenizer and centrifuged at 1500×g for 10 min at 4° C. The resultant supernatants are centrifuged at 10,000×g for 20 min at 4° C. to obtain the P2 pellets. The P2 pellets are resuspended in 200 mM NaCl/50 mM Na—K phosphate pH 7.4 buffer and centrifuged at 10,000×g for 10 min at 4° C. This washing procedure is repeated twice and the pellets are resuspended in 10 volumes of buffer. Aliquots ([…]) of the membrane suspensions are incubated with 3 nM [35S]-TBPS and 5 mL aliquots of test drug dissolved in dimethyl sulfoxide (DMSO) (final 0.5%) in the presence of 5 mM GABA. The incubation is brought to a final volume of 1.0 mL with buffer. Nonspecific binding is determined in the presence of […] and ranged from 15 to 25%. Following a 90 min incubation at room temp, the assays are terminated by filtration through glass fiber filters (Schleicher and Schuell No. 32) using a cell harvester (Brandel) and rinsed three times with ice-cold buffer. Filter bound radioactivity is measured by liquid scintillation spectrometry. Non-linear curve fitting of the overall data for each drug averaged for each concentration is done using Prism (GraphPad). […] The concentration of test compound producing 50% inhibition (IC50) of specific binding and the maximal extent of inhibition (Imax) are determined for the individual experiments with the same model used for the overall data and then the means±SEM.s of the individual experiments are calculated.\nVarious compounds are or can be screened to determine their potential as modulators of [35S]-TBPS binding in vitro. These assays are or can be performed in accordance with the above"}, "[2]": {"test_system": "GABAA receptor ([35S]-TBPS binding, rat brain cortical membranes)", "details": "statement on the positive control; cited from earlier work"}},
  "data": [
    {"compound": "COC[C@@]1(O)CC[C@H]2[C@@H](CC[C@@H]3[C@@H]2CC[C@]2(C)[C@@H](C(=O)CCn4cc(C#N)cn4)CC[C@@H]32)C1", "note": "[Example 2, 1-(3-((3R,5S,8R,9R,10S,13S,14S,17S)-3-hydroxy-3-(methoxymethyl)-13-methylhexadecahydro-1H-cyclopenta[a]phenanthren-17-yl)-3-oxopropyl)-1H-pyrazole-4-carbonitrile]", "values": [
      {"measurement": "IC50", "setting": "[1]", "value": "< 100", "unit": "nM"}
    ]},
    {"compound": "C[C@@H](C(=O)C[C@H]1CC[C@H]2[C@@H]3CC[C@@H]4C[C@](C)(O)CC[C@@H]4[C@H]3CC[C@]12C)n1cc(C#N)cn1", "note": "[Example 9, 1-((S)-4-((3R,5R,8R,9R,10S,13R,14S,17R)-3-hydroxy-3,13-dimethylhexadecahydro-1H-cyclopenta[a]phenanthren-17-yl)-3-oxobutan-2-yl)-1H-pyrazole-4-carbonitrile]", "values": [
      {"measurement": "IC50", "setting": "[1]", "value": "100 to 1000", "unit": "nM"}
    ]},
    {"compound": "C[C@@]1(O)CC[C@H]2[C@H](CC[C@@H]3[C@@H]2CC[C@]2(C)[C@@H](CC(=O)c4ccc(C#N)cc4)CC[C@@H]32)C1", "note": "[Example 12, 4-(2-((3R,5R,8R,9R,10S,13R,14S,17R)-3-hydroxy-3,13-dimethylhexadecahydro-1H-cyclopenta[a]phenanthren-17-yl)acetyl)benzonitrile]", "values": [
      {"measurement": "IC50", "setting": "[1]", "value": "< 100", "unit": "nM"}
    ]},
    {"compound": "C[C@@]1(O)CC[C@H]2[C@H](CC[C@@H]3[C@@H]2CC[C@]2(C)[C@@H](C(=O)CCCCn4cc(C#N)cn4)CC[C@@H]32)C1", "note": "[Example 4, 1-(5-((3R,5R,8R,9R,10S,13S,14S,17S)-3-hydroxy-3,13-dimethylhexadecahydro-1H-cyclopenta[a]phenanthren-17-yl)-5-oxopentyl)-1H-pyrazole-4-carbonitrile]", "values": [
      {"measurement": "IC50", "setting": "[1]", "value": "< 100", "unit": "nM"}
    ]},
    {"compound": "C[C@@]1(O)CC[C@H]2[C@H](CC[C@@H]3[C@@H]2CC[C@]2(C)[C@@H](CC(=O)Cn4cc(C#N)cn4)CC[C@@H]32)C1", "note": "[Example 5, 1-(3-((3R,5R,8R,9R,10S,13R,14S,17R)-3-hydroxy-3,13-dimethylhexadecahydro-1H-cyclopenta[a]phenanthren-17-yl)-2-oxopropyl)-1H-pyrazole-4-carbonitrile]", "values": [
      {"measurement": "IC50", "setting": "[1]", "value": "100 to 1000", "unit": "nM"}
    ]},
    {"compound": "C[C@@]1(O)CC[C@H]2[C@H](CC[C@@H]3[C@@H]2CC[C@]2(C)[C@@H](C(=O)CCCn4cc(C#N)cn4)CC[C@@H]32)C1", "note": "[Example 3, 1-(4-((3R,5R,8R,9R,10S,13S,14S,17S)-3-hydroxy-3,13-dimethylhexadecahydro-1H-cyclopenta[a]phenanthren-17-yl)-4-oxobutyl)-1H-pyrazole-4-carbonitrile]", "values": [
      {"measurement": "IC50", "setting": "[1]", "value": "< 100", "unit": "nM"}
    ]},
    {"compound": "CC(C)(C(=O)C[C@H]1CC[C@H]2[C@@H]3CC[C@@H]4C[C@](C)(O)CC[C@@H]4[C@H]3CC[C@]12C)n1cc(C#N)cn1", "note": "[Example 7, 1-(4-((3R,5R,8R,9R,10S,13R,14S,17R)-3-hydroxy-3,13-dimethylhexadecahydro-1H-cyclopenta[a]phenanthren-17-yl)-2-methyl-3-oxobutan-2-yl)-1H-pyrazole-4-carbonitrile]", "values": [
      {"measurement": "IC50", "setting": "[1]", "value": "100 to 1000", "unit": "nM"}
    ]},
    {"compound": "C[C@@]1(O)CC[C@H]2[C@@H](CC[C@@H]3[C@@H]2CC[C@]2(C)[C@@H](C(=O)CCn4cc(C#N)cn4)CC[C@@H]32)C1", "note": "[Example 1, 1-(3-((3R,5S,8R,9R,10S,13S,14S,17S)-3-hydroxy-3,13-dimethylhexadecahydro-1H-cyclopenta[a]phenanthren-17-yl)-3-oxopropyl)-1H-pyrazole-4-carbonitrile]", "values": [
      {"measurement": "IC50", "setting": "[1]", "value": "< 100", "unit": "nM"}
    ]},
    {"compound": "C[C@H](C(=O)Cn1cc(C#N)cn1)[C@H]1CC[C@H]2[C@@H]3CC[C@@H]4C[C@](C)(O)CC[C@@H]4[C@H]3CC[C@]12C", "note": "[Example 10, 1-((S)-3-((3R,5R,8R,9R,10S,13S,14S,17R)-3-hydroxy-3,13-dimethylhexadecahydro-1H-cyclopenta[a]phenanthren-17-yl)-2-oxobutyl)-1H-pyrazole-4-carbonitrile]", "values": [
      {"measurement": "IC50", "setting": "[1]", "value": "< 100", "unit": "nM"}
    ]},
    {"compound": "C[C@H](C(=O)C[C@H]1CC[C@H]2[C@@H]3CC[C@@H]4C[C@](C)(O)CC[C@@H]4[C@H]3CC[C@]12C)n1cc(C#N)cn1", "note": "[Example 8, 1-((R)-4-((3R,5R,8R,9R,10S,13R,14S,17R)-3-hydroxy-3,13-dimethylhexadecahydro-1H-cyclopenta[a]phenanthren-17-yl)-3-oxobutan-2-yl)-1H-pyrazole-4-carbonitrile]", "values": [
      {"measurement": "IC50", "setting": "[1]", "value": "100 to 1000", "unit": "nM"}
    ]},
    {"compound": "C[C@@H](C(=O)Cn1cc(C#N)cn1)[C@H]1CC[C@H]2[C@@H]3CC[C@@H]4C[C@](C)(O)CC[C@@H]4[C@H]3CC[C@]12C", "note": "[Example 11, 1-((R)-3-((3R,5R,8R,9R,10S,13S,14S,17R)-3-hydroxy-3,13-dimethylhexadecahydro-1H-cyclopenta[a]phenanthren-17-yl)-2-oxobutyl)-1H-pyrazole-4-carbonitrile]", "values": [
      {"measurement": "IC50", "setting": "[1]", "value": "100 to 1000", "unit": "nM"}
    ]},
    {"compound": "COC[C@@]1(O)CC[C@@]2(C)[C@H](CC[C@@H]3[C@@H]2CC[C@]2(C)[C@@H](C(=O)CCn4cc(C#N)cn4)CC[C@@H]32)C1", "note": "[Example 13, 1-(3-((3R,5R,8R,9S,10S,13S,14S,17S)-3-hydroxy-3-(methoxymethyl)-10,13-dimethylhexadecahydro-1H-cyclopenta[a]phenanthren-17-yl)-3-oxopropyl)-1H-pyrazole-4-carbonitrile]", "values": [
      {"measurement": "IC50", "setting": "[1]", "value": "< 100", "unit": "nM"}
    ]},
    {"compound": "Picrotoxin", "values": [
      {"measurement": "inhibition of TBPS binding (positive control)", "setting": "[2]", "value": "robustly inhibit TBPS binding"}
    ]}
  ]
}
